Where only a bound is given, the exact number is not on record here.

IC50 data for 11 molecules are collected here from US20240034731A1, “AZA-QUINAZOLINE COMPOUNDS AND METHODS OF USE” (Iambic Therapeutics, Inc., priority 2022, published 2024).

The target of one assay is CDK4/Cyclin D1 (Homo sapiens (Human), UniProt P11802). Kind of assay: CDK4/Cyclin D1 CHEF Assay (AQT0258 peptide). The class given is biochemical. As to conditions: 200 uM ATP, read-out: CDK4/ CyclinD1 AQT IC50. The source says:
CDK4/Cyclin D1 CHEF Assay
The purpose of CDK4/Cyclin D1 assay is to evaluate the inhibition (% inhibition and IC50 values) of small molecule inhibitors by using a Chelation-Enhance Fluorescence (CHEF) assay. In a CHEF assay, phosphorylation of a peptide substrate results in proportional increase in fluorescence. CHEF kinase assay use peptide substrates containing a synthetic alpha-amino acid with a side chain bearing an 8-hydroxyquinoline derivative (sulfonamido-oxide, Sox). Upon phosphorylation of a nearby serine, threonine or tyrosine and in the presence of Mg(II), the spectral properties of the Sox residue are altered, emitting 485 nm wavelength light when excited with a 360 nm wavelength light source. CDK4/Cyclin D1 catalyzes the phosphoryl transfer to the SOX-labeled substrate peptide AQT0258 from Assayquant Technologies. […] The reaction was initiated with the addition of substrate solution, following a 30-minute pre-incubation of enzyme and inhibitor at 22° C. in the reaction mix. Reactions were allowed to proceed for 3 hrs at 22° C., followed by fluorescence read of the reaction. The IC50 determinations were made from a plot of the fractional velocity as a function of inhibitor concentration fit to the 4 parameters IC50 equation.

For a further assay, the target named is CDK2/Cyclin E1 (Homo sapiens (Human), UniProt P24941). Briefly: CDK2/Cyclin E1 Full length ADP-Glo Kinase Assay. The conditions noted are these: 20 uM ATP, read-out: CDK2/ CyclinE1 IC50. The class given is biochemical. Here is the method:
CDK2/Cyclin E1 Full length ADP-Glo Kinase Assay
(§1) The purpose of CDK2/Cyclin E1 assay is to evaluate the inhibition (% inhibition and IC50 values) of small molecule inhibitors by using a Luminescent based ADP-Glo assay. CDK2/Cyclin E1 full length catalyzes the production of ADP from ATP. ADP-Glo assay monitors ADP producing biochemical reactions. ADP-Glo is performed in 2 steps upon completion of kinase reaction: a combined termination of kinase reaction and depletion of remaining ATP in the first step, and conversion of generated ADP to ATP and the newly produced ATP to light output using luciferase/luciferin reaction in the second step. The luminescent signal generated is proportional to the ADP concentration produced and is correlated with the kinase activity. CDK2/Cyclin E1 was purchased from Eurofins (Cat 14-475M). […] The assay was initiated with the addition of ATP-containing substrate solution, following a 30-minute pre-incubation of enzyme and inhibitor at room temperature in the reaction mixture. The reaction was stopped after 90 minutes at room temperature by the addition of 10 uL of ADP-GLO Reagent. After a 90 minute incubation, 20 uL of Kinase Detection Reagent was added. Samples were incubated for 40 minutes, after which plate well luminescence was measured on a Envision microplate reader. The IC50 determinations were made from a plot of the fractional velocity as a function of inhibitor concentration fit to the 4 parameters IC50 equation.
On the technique in general: In ADP-Glo the light output rises with the ADP produced.

A further assay deals with CDK6/Cyclin D3 (Homo sapiens (Human), UniProt Q00534). Kind of assay: CDK6/Cyclin D3 ADP-Glo Kinase Assay. As to conditions: 100 uM ATP, read-out: CDK6/ CyclinD3 IC50. The class given is biochemical. As for the experimental part:
CDK6/Cyclin D3 ADP-Glo Kinase Assay
The purpose of the CDK6/Cyclin D3 assay is to evaluate the inhibition (% inhibition and IC50 values) in the presence of small molecule inhibitors by using a Luminescent based ADP-Glo assay. CDK6/Cyclin D3 catalyzes the production of ADP from ATP. ADP-Glo assay monitors ADP producing biochemical reactions. ADP-Glo is performed in 2 steps upon completion of kinase reaction: a combined termination of kinase reaction and depletion of remaining ATP in the first step, and conversion of generated ADP to […] and the newly produced ATP to light output using luciferase/luciferin reaction in the second step. The luminescent signal generated is proportional to the ADP concentration produced and is correlated with the kinase activity CDK6/Cyclin D3 was purchased from Carna. […] The assay was initiated with the addition of ATP-containing substrate solution, following a 30-minute pre-incubation of enzyme and inhibitor at room temperature in the reaction mixture. The reaction was stopped after 90 minutes at room temperature by the addition of 10 uL of ADP-GLO Reagent. After a 90-minute incubation, 20 uL of Kinase Detection Reagent was added. Samples were incubated for 40 minutes, after which plate well luminescence was measured on a Envision microplate reader. The IC50 determinations were made from a plot of the fractional velocity as a function of inhibitor concentration fit to the 4 parameters IC50 equation.

The target in the next assay is CDK1/Cyclin B1 (Homo sapiens (Human), UniProt P06493). Kind of assay: CDK1/Cyclin B1 ADP-Glo Kinase Assay. The class given is biochemical. As to conditions: ADP-Glo, 80 uM ATP; read-out: CDK1 Cyclin B1 IC50. Here is the method:
CDK1/Cyclin B1 ADP-Glo Kinase Assay
as §1, with “CDK1/Cyclin B1” for “CDK2/Cyclin E1”, “CDK1/Cyclin B1” for “CDK2/Cyclin E1 full length”, “Carna” for “Eurofins”, “04-102).” for “14-475M).”

Another assay relates to OVCAR-3 cells. Kind of assay: Cell Growth Inhibition, OVCAR-3 (CellTiterGlo, 6 days). The assay is classed as cell-based. The conditions noted are these: Homo sapiens, 144 h, OVCAR-3, 6-day treatment. From the text: (§2) MCF-7 and OVCAR-3 cells were used to evaluate the anti-proliferation activity of the CDK inhibitors. MCF-7 (ATCC, HTB-22) cells are epithelial cells from a patient with ER+ metastatic adenocarcinoma. OVCAR-3 (ATCC, HTB-161) cells were derived from malignant ascites of a patient with ovarian cancer and are known to have CCNE1 amplification. Both cell lines were maintained in RPMI media supplemented with 10% fetal bovine serum. For cell growth inhibition assay, CDK inhibitors in DMSO solution were dispensed with either Echo 655 (Beckman Coulter) or Tecan D300e (HP) into 384-well plates (Corning #3765) and the 384-well plates were UV-sterilized prior to the assay. The inhibitors were typically tested in the 10-10,000 nM concentration range with half-log serial dilutions. MCF-7 or OVCAR-3 (500 cells/30 μL/well) were added to each well using Multidrop Combi (ThermoFisher) using standard cassettes. The assay plates with cells were cultured at 37° C., 5% CO2 for 6 days. At the end of the 6-day treatment, 30 μL of CellTiterGlo 2.0 (Promega) was added to each well and the luminescent signal was read using CLARIOstar plus (BMG). The percentage of cell growth inhibition (% CGI) was calculated using the following formula 00 CGI=100-100×luminescencesampie/luminescencecontroi. The half maximal inhibitory concentration (IC50) was determined by nonlinear curve fitting (four parameters, variable slope).
A general note: Cellular ATP, detected with luciferase, serves as a proxy for viable cell number.

For a further assay, the system named is MCF-7 cells. Briefly: Cell Growth Inhibition, MCF-7 (CellTiterGlo, 6 days). The assay is classed as cell-based. As to conditions: Homo sapiens, MCF7, 144 h, MCF-7, 6-day treatment.
Description: as §2

CDK6/Cyclin D3, sequence (Q00534 whole entry): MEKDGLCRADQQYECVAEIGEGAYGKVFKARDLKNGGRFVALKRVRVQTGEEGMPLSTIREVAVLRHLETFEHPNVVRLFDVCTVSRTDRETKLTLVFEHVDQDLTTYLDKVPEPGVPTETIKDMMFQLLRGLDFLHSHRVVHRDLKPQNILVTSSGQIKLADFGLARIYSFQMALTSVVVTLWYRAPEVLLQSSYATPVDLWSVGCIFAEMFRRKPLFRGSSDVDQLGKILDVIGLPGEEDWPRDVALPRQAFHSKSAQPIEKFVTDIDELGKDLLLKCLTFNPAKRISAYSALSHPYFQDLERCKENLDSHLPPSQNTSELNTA
CDK6/Cyclin D3, sequence (P30281 whole entry partner): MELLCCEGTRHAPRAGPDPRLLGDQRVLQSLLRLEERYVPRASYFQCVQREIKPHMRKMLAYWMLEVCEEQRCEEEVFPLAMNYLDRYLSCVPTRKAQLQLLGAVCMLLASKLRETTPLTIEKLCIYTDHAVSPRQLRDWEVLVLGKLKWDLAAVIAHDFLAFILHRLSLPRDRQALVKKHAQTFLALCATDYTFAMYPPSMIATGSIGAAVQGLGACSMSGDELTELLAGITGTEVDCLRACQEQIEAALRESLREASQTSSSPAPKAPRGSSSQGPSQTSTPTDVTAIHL
CDK4/Cyclin D1, sequence (P11802 whole entry): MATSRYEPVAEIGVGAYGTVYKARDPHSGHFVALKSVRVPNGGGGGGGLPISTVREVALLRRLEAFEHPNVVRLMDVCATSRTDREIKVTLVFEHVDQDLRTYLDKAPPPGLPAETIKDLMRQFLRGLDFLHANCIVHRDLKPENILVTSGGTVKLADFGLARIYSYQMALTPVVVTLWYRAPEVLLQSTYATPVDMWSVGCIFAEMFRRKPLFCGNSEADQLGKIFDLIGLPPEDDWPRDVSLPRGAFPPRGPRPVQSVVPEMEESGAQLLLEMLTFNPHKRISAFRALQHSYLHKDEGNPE
CDK4/Cyclin D1, sequence (P24385 whole entry partner): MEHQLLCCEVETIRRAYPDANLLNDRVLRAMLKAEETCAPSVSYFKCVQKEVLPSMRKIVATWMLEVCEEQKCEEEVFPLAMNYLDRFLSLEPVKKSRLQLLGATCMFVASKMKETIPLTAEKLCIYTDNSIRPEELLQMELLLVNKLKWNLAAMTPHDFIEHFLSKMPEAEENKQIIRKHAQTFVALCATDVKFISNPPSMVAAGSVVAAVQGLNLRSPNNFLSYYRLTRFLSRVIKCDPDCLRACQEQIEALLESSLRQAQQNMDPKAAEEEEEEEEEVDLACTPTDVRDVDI
CDK1/Cyclin B1, sequence (P06493 whole entry): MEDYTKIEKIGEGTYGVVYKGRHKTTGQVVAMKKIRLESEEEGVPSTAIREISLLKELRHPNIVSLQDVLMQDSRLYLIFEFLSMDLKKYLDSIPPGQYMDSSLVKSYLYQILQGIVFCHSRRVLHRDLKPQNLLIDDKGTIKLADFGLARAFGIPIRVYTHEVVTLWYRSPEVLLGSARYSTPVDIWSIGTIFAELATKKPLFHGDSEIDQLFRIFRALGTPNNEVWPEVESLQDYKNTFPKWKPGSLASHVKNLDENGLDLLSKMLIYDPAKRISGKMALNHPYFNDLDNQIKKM
CDK1/Cyclin B1, sequence (P14635 whole entry partner): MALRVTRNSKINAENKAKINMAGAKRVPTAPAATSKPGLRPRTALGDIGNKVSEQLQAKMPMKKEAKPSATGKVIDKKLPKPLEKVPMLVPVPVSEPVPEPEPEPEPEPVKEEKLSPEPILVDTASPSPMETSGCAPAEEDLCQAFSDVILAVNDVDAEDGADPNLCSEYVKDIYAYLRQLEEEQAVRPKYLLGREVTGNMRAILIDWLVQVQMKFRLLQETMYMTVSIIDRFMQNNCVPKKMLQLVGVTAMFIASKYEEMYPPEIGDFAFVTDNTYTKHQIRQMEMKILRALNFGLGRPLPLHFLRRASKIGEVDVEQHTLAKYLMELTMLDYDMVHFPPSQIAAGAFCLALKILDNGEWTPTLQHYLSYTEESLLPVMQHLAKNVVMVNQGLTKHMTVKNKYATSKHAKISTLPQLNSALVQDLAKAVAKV

`[2H]C([2H])([2H])N1CC2(CN(c3nc(C)cc4cnc(NC5CCN(S(=O)(=O)C6CC6)CC5)nc34)CC2(F)F)C1` [Compound 13, N-(1-(cyclopropylsulfonyl)piperidin-4-yl)-8-(8,8-difluoro-2-(methyl-d3)-2,6-diazaspiro[3.4]octan-6-yl)-6-methylpyrido[3,4-d]pyrimidin-2-amine]: the IC50 on CDK4/Cyclin D1, at CDK2/Cyclin E1, on CDK6/Cyclin D3 and on CDK1/Cyclin B1 was less than 200 nM in each case.

On to `CS(=O)(=O)N1CCC(Nc2ncc3ccnc(N4C[C@H]5c6ccccc6S(=O)(=O)[C@H]5C4)c3n2)CC1` [Compound 16, (3aR,8bR)-2-(2-((1-(methylsulfonyl)piperidin-4-yl)amino)pyrido[3,4-d]pyrimidin-8-yl)-2,3,3a,8b-tetrahydro-1H-benzo[4,5]thieno[2,3-c]pyrrole 4,4-dioxide], for which the IC50 was 500 to 2000 nM in the assay on OVCAR-3 cells, 500 to 2000 nM in the assay on MCF-7 cells and less than 200 nM on CDK1/Cyclin B1.

Regarding `Cc1cc2cnc(NC3CCN(S(C)(=O)=O)CC3)nc2c(N2CC3(C2)CN(C2CC2)C3)n1` [Compound 42, 8-(6-cyclopropyl-2,6-diazaspiro[3.3]heptan-2-yl)-6-methyl-N-(1-(methylsulfonyl)piperidin-4-yl)pyrido[3,4-d]pyrimidin-2-amine], the IC50 in the assay with OVCAR-3 cells is 500 to 2000 nM; in the assay with MCF-7 cells, 500 to 2000 nM; on CDK1/Cyclin B1, more than 2000 nM.

As to `Cc1cc2cnc(NC3CCN(S(=O)(=O)C4CC4)CC3)nc2c(N2CC(C#N)(CCF)C2)n1` [Compound 68, 1-(2-((1-(cyclopropylsulfonyl)piperidin-4-yl)amino)-6-methylpyrido[3,4-d]pyrimidin-8-yl)-3-(2-fluoroethyl)azetidine-3-carbonitrile], the IC50 was 200 to 500 nM on CDK4/Cyclin D1, less than 200 nM at CDK2/Cyclin E1, 500 to 2000 nM at CDK6/Cyclin D3 and more than 2000 nM at CDK1/Cyclin B1.

For `Cc1cc2cnc(NC3CCN(S(C)(=O)=O)CC3)nc2c(C2CC(C)(CO)C2)n1` (centres unmarked) [Compound 69, (1-methyl-3-(6-methyl-2-((1-(methylsulfonyl)piperidin-4-yl)amino)pyrido[3,4-d]pyrimidin-8-yl)cyclobutyl)methanol], the IC50 on CDK4/Cyclin D1, on CDK2/Cyclin E1, on CDK6/Cyclin D3 and on CDK1/Cyclin B1 was less than 200 nM each time.

Take `Cc1cc2cnc(NC3CCN(S(C)(=O)=O)CC3)nc2c(N2CC3(CNC(=O)C3)C2)n1` [Compound 81, 2-(6-methyl-2-((1-(methylsulfonyl)piperidin-4-yl)amino)pyrido[3,4-d]pyrimidin-8-yl)-2,6-diazaspiro[3.4]octan-7-one]: the IC50 was less than 200 nM at CDK4/Cyclin D1, less than 200 nM at CDK2/Cyclin E1, 200 to 500 nM on CDK6/Cyclin D3 and 200 to 500 nM at CDK1/Cyclin B1.

For the molecule `Cc1cc2cnc(NC3CCN(S(C)(=O)=O)CC3)nc2c(N2CC3(CCC(=O)NC3)C2)n1` [Compound 82, 2-(6-methyl-2-((1-(methylsulfonyl)piperidin-4-yl)amino)pyrido[3,4-d]pyrimidin-8-yl)-2,6-diazaspiro[3.5]nonan-7-one], the IC50 is 200 to 500 nM at CDK4/Cyclin D1, less than 200 nM at CDK2/Cyclin E1, 200 to 500 nM on CDK6/Cyclin D3 and 200 to 500 nM at CDK1/Cyclin B1.

On to `Cc1cc2cnc(NC3CCN(S(C)(=O)=O)CC3)nc2c(N2CC3(CNCC3F)C2)n1` (centres unmarked) [Compound 98, 8-(8-fluoro-2,6-diazaspiro[3.4]octan-2-yl)-6-methyl-N-(1-(methylsulfonyl)piperidin-4-yl)pyrido[3,4-d]pyrimidin-2-amine], for which the IC50 at CDK4/Cyclin D1 was less than 200 nM; at CDK2/Cyclin E1 it was less than 200 nM; on CDK6/Cyclin D3 it was 200 to 500 nM; at CDK1/Cyclin B1 it was 200 to 500 nM.

With `Cc1cc2cnc(NC3CCN(S(C)(=O)=O)CC3)nc2c(C2CC3(CNCC3(F)F)C2)n1` (centres unmarked) [Compound 99, 8-(8,8-difluoro-6-azaspiro[3.4]octan-2-yl)-6-methyl-N-(1-(methylsulfonyl)piperidin-4-yl)pyrido[3,4-d]pyrimidin-2-amine], the IC50 on CDK4/Cyclin D1, on CDK2/Cyclin E1, on CDK6/Cyclin D3 and at CDK1/Cyclin B1 was less than 200 nM each time.

`Cc1cc2cnc(NC3CCN(S(C)(=O)=O)CC3)nc2c(N2CC3(CN(C)C[C@@H]3F)C2)n1` [Compound 103, (R)-8-(8-fluoro-6-methyl-2,6-diazaspiro[3.4]octan-2-yl)-6-methyl-N-(1-(methylsulfonyl)piperidin-4-yl)pyrido[3,4-d]pyrimidin-2-amine]: the IC50 at CDK4/Cyclin D1 and at CDK6/Cyclin D3 was less than 200 nM throughout.

For the molecule `Cc1cc2cnc(NC3CCN(S(C)(=O)=O)CC3)nc2c(N2CC3(CN(C)C[C@H]3F)C2)n1` [Compound 104, (S)-8-(8-fluoro-6-methyl-2,6-diazaspiro[3.4]octan-2-yl)-6-methyl-N-(1-(methylsulfonyl)piperidin-4-yl)pyrido[3,4-d]pyrimidin-2-amine], the values for the IC50 at CDK4/Cyclin D1 and on CDK6/Cyclin D3 were less than 200 nM and 200 to 500 nM, respectively.
